The source of these data is US10308650B2, “Pesticidally active tetracyclic derivatives with sulfur containing substituents” (Syngenta Participations AG, priority 2014, dated 2019).

Holding throughout (assay type): in vivo
For assay [1], the system named is Euschistus heros (Neotropical Brown Stink Bug). In words: Activity against Euschistus heros. Particulars: 120 h, application rate of 200 ppm, soybean leaves, N2 nymphs, 5 days after infestation, read-out: effect in at least one of the two categories (mortality or growth inhibition). How it is done: Example B3: Activity Against Euschistus heros (Neotropical Brown Stink Bug)
Soybean leaves on agar in 24-well microtiter plates were sprayed with aqueous test solutions prepared from 10,000 ppm DMSO stock solutions. After drying the leaves were infested with N2 nymphs. The samples were assessed for mortality and growth inhibition in comparison to untreated samples 5 days after infestation.

Assay [2] deals with Myzus persicae (Green Peach Aphid). In words: Activity against Myzus persicae: feeding/contact activity. Particulars: foliar, 144 h, application rate of 200 ppm, sunflower leaf discs, aphid population of mixed ages, 6 days after infestation, read-out: mortality. The method, then: Example B5: Activity Against Myzus persicae (Green Peach Aphid): Feeding/Contact Activity
Sunflower leaf discs were placed onto agar in a 24-well microtiter plate and sprayed with aqueous test solutions prepared from 10,000 ppm DMSO stock solutions. After drying, the leaf discs were infested with an aphid population of mixed ages. The samples were assessed for mortality 6 days after infestation.

Assay [3] shares this test system. In words: Activity against Myzus persicae: systemic activity. The conditions noted are these: 144 h, test rate of 24 ppm, roots of infested pea seedlings in test solution, 6 days, read-out: mortality. The method, then:
Example B6: Activity Against Myzus persicae (Green Peach Aphid). Systemic Activity
Roots of pea seedlings infested with an aphid population of mixed ages were placed directly into aqueous test solutions prepared from 10,000 DMSO stock solutions. The samples were assessed for mortality 6 days after placing seedlings into test solutions.

Assay [4] concerns Diabrotica balteata (Corn Root Worm). Description: Activity against Diabrotica balteata. Particulars: 96 h, application rate of 200 ppm, maize sprouts, L2 larvae, 4 days after infestation, read-out: effect in at least one of the two categories (mortality or growth inhibition). The method, then: Example B2: Activity Against Diabrotica balteata (Corn Root Worm)
Maize sprouts placed onto an agar layer in 24-well microtiter plates were treated with aqueous test solutions prepared from 10,000 ppm DMSO stock solutions by spraying. After drying, the plates were infested with L2 larvae (6 to 10 per well). The samples were assessed for mortality and growth inhibition in comparison to untreated samples 4 days after infestation.

Assay [5] relates to Plutella xylostella (Diamond Back Moth). Description: Activity against Plutella xylostella. The conditions noted are these: 120 h, application rate of 200 ppm, artificial diet, L2 larvae, 5 days after infestation, read-out: effect in at least one of the two categories (mortality or growth inhibition). The method, then:
Example B8: Activity Against Plutella xylostella (Diamond Back Moth)
24-well microtiter plates with artificial diet were treated with aqueous test solutions prepared from 10,000 ppm DMSO stock solutions by pipetting. After drying, the plates were infested with L2 larvae (10 to 15 per well). The samples were assessed for mortality and growth inhibition in comparison to untreated samples 5 days after infestation.

Assay [6] concerns Bemisia tabaci (Cotton White Fly). Description: Activity against Bemisia tabaci: feeding/contact activity. The conditions noted are these: foliar, 144 h, application rate of 200 ppm, cotton leaf discs, adult white flies, 6 days after incubation. How it is done: Example B1: Activity Against Bemisia tabaci (Cotton White Fly): Feeding/Contact Activity
Cotton leaf discs were placed on agar in 24-well microtiter plates and sprayed with aqueous test solutions prepared from 10,000 ppm DMSO stock solutions. After drying the leaf discs were infested with adult white flies. The samples were checked for mortality 6 days after incubation.

In assay [7] the test system is Spodoptera littoralis (Egyptian Cotton Leaf Worm). In words: Activity against Spodoptera littoralis (lettuce, uptake by the roots from agar). The conditions noted are these: 144 h, test rate of 12.5 ppm, lettuce grown on treated agar, Spodoptera eggs, 6 days after infestation, read-out: effect in at least one of the three categories (mortality, anti-feeding, or growth inhibition). The text has this:
Example B10: Activity Against Spodoptera littoralis (Egyptian Cotton Leaf Worm)
Test compounds were applied by pipette from 10,000 ppm DMSO stock solutions into 24-well plates and mixed with agar. Lettuce seeds were placed onto the agar and the multi well plate was closed by another plate which contained also agar. After 7 days the compound was absorbed by the roots and the lettuce grew into the lid plate. The lettuce leaves were then cut off into the lid plate. Spodoptera eggs were pipetted through a plastic stencil onto a humid gel blotting paper and the lid plate was closed with it. The samples were assessed for mortality, anti-feedant effect and growth inhibition in comparison to untreated samples 6 days after infestation.

For assay [8] the test system is unchanged. In words: Activity against Spodoptera littoralis (cotton leaf discs, spray). The conditions noted are these: foliar, 72 h, application rate of 200 ppm, cotton leaf discs, L1 larvae, 3 days after infestation, read-out: control (mortality, anti-feeding effect, growth inhibition). The method, then: Example B9: Activity Against Spodoptera littoralis (Egyptian Cotton Leaf Worm)
Cotton leaf discs were placed onto agar in 24-well microtiter plates and sprayed with aqueous test solutions prepared from 10,000 ppm DMSO stock solutions. After drying the leaf discs were infested with five L1 larvae. The samples were assessed for mortality, anti-feeding effect, and growth inhibition in comparison to untreated samples 3 days after infestation. Control of Spodoptera littoralis by a test sample is given when at least one of the categories mortality, anti-feedant effect, and growth inhibition is higher than the untreated sample.

Regarding `CCS(=O)(=O)c1cc2c(cc1-c1nc3cc(C(F)(F)F)ncc3n1C)nnn2C` [Compound A36, 6-ethylsulfonyl-1-methyl-5-[3-methyl-6-(trifluoromethyl)imidazo[4,5-c]pyridin-2-yl]benzotriazole], the percent effect (mortality or growth inhibition) at 200 ppm in assay [1], in assay [4] and in assay [5] was at least 80% throughout. Moreover, the mortality – broadly, the percentage killed – at 200 ppm in assay [2] was at least 80%. In addition, the mortality at 24 ppm in assay [3] was at least 80%.

`CCS(=O)(=O)c1cc2nnn(C)c2cc1-c1nc2cc(C(F)(F)F)ncc2n1C` [Compound A35, 5-ethylsulfonyl-1-methyl-6-[3-methyl-6-(trifluoromethyl)imidazo[4,5-c]pyridin-2-yl]benzotriazole]: the mortality at 200 ppm in assay [2] is at least 80%. Besides, the mortality at 24 ppm in assay [3] is at least 80%. Besides, the percent effect (mortality or growth inhibition) at 200 ppm in assay [4] was at least 80%.

As for `CCS(=O)(=O)c1cc2[nH]c(C(F)(F)F)nc2nc1-c1nc2cc(C(F)(F)F)ncc2n1C` [Compound A34, 6-ethylsulfonyl-5-[3-methyl-6-(trifluoromethyl)imidazo[4,5-c]pyridin-2-yl]-2-(trifluoromethyl)-1H-imidazo[4,5-b]pyridine], the percent effect (mortality or growth inhibition) at 200 ppm in assay [1] and in assay [4] was at least 80% each time. In addition, the mortality at 24 ppm in assay [3] is at least 80%.

Consider `CCS(=O)(=O)c1cc2c[n+]([O-])ccc2cc1-c1nc2cc(C(F)(F)F)ncc2n1C` [Compound A27, 7-ethylsulfonyl-6-[3-methyl-6-(trifluoromethyl)imidazo[4,5-c]pyridin-2-yl]-2-oxido-isoquinolin-2-ium], for which, in assay [1], the percent effect (mortality or growth inhibition) at 200 ppm is at least 80%. Moreover, the mortality at 200 ppm in assay [6] and in assay [2] was at least 80% in each case. Also, in assay [3], the mortality at 24 ppm is at least 80%.

`CCSc1cc2cnccc2cc1-c1nc2cc(C(F)(F)F)ncc2n1C` [Compound A25, 7-ethylsulfanyl-6-[3-methyl-6-(trifluoromethyl)imidazo[4,5-c]pyridin-2-yl]isoquinoline]: the percent effect (mortality or growth inhibition) at 200 ppm in assay [1] and in assay [4] was at least 80% in each case.

On to `CCS(=O)(=O)c1cc2cnccc2cc1-c1nc2cc(C(F)(F)F)ncc2n1C` [Compound A26, 7-ethylsulfonyl-6-[3-methyl-6-(trifluoromethyl)imidazo[4,5-c]pyridin-2-yl]isoquinoline], for which the percent effect (mortality or growth inhibition) at 200 ppm in assay [1] is at least 80%.

With `CCS(=O)(=O)c1cc2c(cc1-c1nc3cc(C(F)(F)F)ncc3n1C)nc(C)n2C` (single isomer, unassigned) [Compound A15, 2-(6-ethylsulfonyl-1,2-dimethyl-benzimidazol-5-yl)-3-methyl-6-(trifluoromethyl)imidazo[4,5-c]pyridine], the percent effect (mortality or growth inhibition) at 200 ppm in assay [1] and in assay [5] was at least 80% throughout. Also, the mortality at 200 ppm in assay [2] is at least 80%. Besides, the mortality at 24 ppm in assay [3] is at least 80%.

As for `CC[S+]([O-])c1cc2ccccc2cc1-c1nc2cc(C(F)(F)F)cnc2n1C` (stereo not shown) [Compound A2, 2-(3-ethylsulfinyl-2-naphthyl)-3-methyl-6-(trifluoromethyl)imidazo[4,5-b]pyridine], the percent effect (mortality or growth inhibition) at 200 ppm in assay [1] and in assay [4] was at least 80% throughout.

Consider `CCS(=O)(=O)c1cc2nc(-c3ccccc3)[nH]c2cc1-c1nc2cc(C(F)(F)F)ncc2n1C` [Compound A16, 2-(6-ethylsulfonyl-2-phenyl-3H-benzimidazol-5-yl)-3-methyl-6-(trifluoromethyl)imidazo[4,5-c]pyridine], for which the percent effect (mortality or growth inhibition) at 200 ppm in assay [5] is at least 80%.

Take `CCS(=O)(=O)c1cc2nn[nH]c2cc1-c1nc2cc(C(F)(F)F)ncc2n1C` [Compound A17, 2-(6-ethylsulfonyl-3H-benzotriazol-5-yl)-3-methyl-6-(trifluoromethyl)imidazo[4,5-c]pyridine]: in assay [1], the percent effect (mortality or growth inhibition) at 200 ppm is at least 80%.

With `CCS(=O)(=O)c1cc2nc(C)n(C)c2cc1-c1nc2cc(C(F)(F)F)ncc2n1C` (single isomer, unassigned) [Compound A14, 2-(6-ethylsulfonyl-2,3-dimethyl-benzimidazol-5-yl)-3-methyl-6-(trifluoromethyl)imidazo[4,5-c]pyridine], in assay [1], the percent effect (mortality or growth inhibition) at 200 ppm was at least 80%. In addition, the mortality at 200 ppm in assay [2] was at least 80%.

`CCSc1cc2ccccc2cc1-c1nc2cc(C(F)(F)F)cnc2n1C` [Compound A1, 2-(3-ethylsulfanyl-2-naphthyl)-3-methyl-6-(trifluoromethyl)imidazo[4,5-b]pyridine]: the percent effect (mortality or growth inhibition) at 200 ppm in assay [1] and in assay [4] was at least 80% each time.

`CCS(=O)(=O)c1cc2ncn(C)c2cc1-c1nc2cc(C(F)(F)F)ncc2n1C` (single isomer, unassigned) [Compound A11, 2-(6-ethylsulfonyl-3-methyl-benzimidazol-5-yl)-3-methyl-6-(trifluoromethyl)imidazo[4,5-c]pyridine]: the percent effect (mortality or growth inhibition) at 200 ppm in assay [1] and in assay [4] was at least 80% throughout. Moreover, in assay [2], the mortality at 200 ppm is at least 80%. For the same compound, in assay [3], the mortality at 24 ppm is at least 80%.

For the compound `CCS(=O)(=O)c1cc2nc(C)sc2cc1-c1nc2cc(C(F)(F)F)ncc2n1C` [Compound A19, 5-ethylsulfonyl-2-methyl-6-[3-methyl-6-(trifluoromethyl)imidazo[4,5-c]pyridin-2-yl]-1,3-benzothiazole], the percent effect (mortality or growth inhibition) at 200 ppm in assay [1] and in assay [4] was at least 80% throughout. For the same compound, the mortality at 200 ppm in assay [2] and in assay [8] was at least 80% throughout. Further, the mortality at 24 ppm in assay [3] was at least 80%. For the same compound, the percent effect (mortality, anti-feeding or growth inhibition) at 12.5 ppm in assay [7] was at least 80%.

With `CCS(=O)(=O)c1cc2c(cc1-c1nc3cc(C(F)(F)F)ncc3n1C)ncn2C` (single isomer, unassigned) [Compound A12, 2-(6-ethylsulfonyl-1-methyl-benzimidazol-5-yl)-3-methyl-6-(trifluoromethyl)imidazo[4,5-c]pyridine], the percent effect (mortality or growth inhibition) at 200 ppm in assay [1] and in assay [5] was at least 80% each time. Further, in assay [2], the mortality at 200 ppm was at least 80%. Besides, the mortality at 24 ppm in assay [3] was at least 80%.

On to `CCS(=O)(=O)c1cc2ncsc2cc1-c1nc2cc(C(F)(F)F)ncc2n1C` [Compound A30, 5-ethylsulfonyl-6-[3-methyl-6-(trifluoromethyl)imidazo[4,5-c]pyridin-2-yl]-1,3-benzothiazole], for which the percent effect (mortality or growth inhibition) at 200 ppm in assay [1], in assay [4] and in assay [5] was at least 80% each time.

For `CCS(=O)(=O)c1cc2nccnc2cc1-c1nc2cc(C(F)(F)F)ncc2n1C` [Compound A20, 6-ethylsulfonyl-7-[3-methyl-6-(trifluoromethyl)imidazo[4,5-c]pyridin-2-yl]quinoxaline], the mortality at 24 ppm in assay [3] is at least 80%. In addition, the percent effect (mortality or growth inhibition) at 200 ppm in assay [4] was at least 80%.
